Assay results as given in PubChem BioAssay AID1259407 (Chemical Carcinogenesis Research Information System (CCRIS), 2018).
The source made the active and inactive calls. The rule behind the calls is not given here.

Test system: CCRIS mutagenicity, Ames/micronucleus/aberration tests
Assay: CCRIS mutagenicity studies

In the case of `C=CC(=O)O`, the mutagenic call (Test System: AMES SALMONELLA TYPHIMURIUM, Strain/Indicator: TA97, Metabolic Activation: NONE, Method: PREINCUBATION) is reported as “inactive; negative”, the mutagenic call (Test System: AMES SALMONELLA TYPHIMURIUM, Strain/Indicator: TA97, Metabolic Activation: S-9, Method: PREINCUBATION) is reported as “inactive; negative” and the mutagenic call (Test System: AMES SALMONELLA TYPHIMURIUM, Strain/Indicator: TA98, Metabolic Activation: HAMSTER, LIVER, S-9, AROCLOR 1254 (10%), Method: PREINCUBATION) is reported as “inactive; negative”. The mutagenic call (Test System: AMES SALMONELLA TYPHIMURIUM, Strain/Indicator: TA98, Metabolic Activation: HAMSTER, LIVER, S-9, AROCLOR 1254, Method: STANDARD PLATE) was “inactive; negative”, the mutagenic call (Test System: AMES SALMONELLA TYPHIMURIUM, Strain/Indicator: TA98, Metabolic Activation: NONE, Method: PREINCUBATION) was “inactive; negative” and the mutagenic call (Test System: AMES SALMONELLA TYPHIMURIUM, Strain/Indicator: TA98, Metabolic Activation: NONE, Method: STANDARD PLATE) was “inactive; negative”. The mutagenic call (Test System: AMES SALMONELLA TYPHIMURIUM, Strain/Indicator: TA98, Metabolic Activation: RAT LIVER S-9, PHENOBARBITAL AND BETA-NAPHTHOFLAVONE, Method: PREINCUBATION) was “inactive; negative”, the mutagenic call (Test System: AMES SALMONELLA TYPHIMURIUM, Strain/Indicator: TA98, Metabolic Activation: RAT, LIVER, S-9, AROCLOR 1254 (10%), Method: PREINCUBATION) was “inactive; negative” and the mutagenic call (Test System: AMES SALMONELLA TYPHIMURIUM, Strain/Indicator: TA98, Metabolic Activation: RAT, LIVER, S-9, AROCLOR 1254, Method: STANDARD PLATE) was “inactive; negative”. The mutagenic call (Test System: AMES SALMONELLA TYPHIMURIUM, Strain/Indicator: TA98, Metabolic Activation: RAT, LIVER, S-9, AROCLOR, Method: STANDARD PLATE) was “inactive; negative”, the mutagenic call (Test System: AMES SALMONELLA TYPHIMURIUM, Strain/Indicator: TA100, Metabolic Activation: HAMSTER, LIVER, S-9, AROCLOR 1254 (10%), Method: PREINCUBATION) was “inactive; negative” and the mutagenic call (Test System: AMES SALMONELLA TYPHIMURIUM, Strain/Indicator: TA100, Metabolic Activation: HAMSTER, LIVER, S-9, AROCLOR 1254, Method: STANDARD PLATE) was “inactive; negative”. The mutagenic call (Test System: AMES SALMONELLA TYPHIMURIUM, Strain/Indicator: TA100, Metabolic Activation: NONE, Method: PREINCUBATION) was “inactive; negative”, the mutagenic call (Test System: AMES SALMONELLA TYPHIMURIUM, Strain/Indicator: TA100, Metabolic Activation: NONE, Method: STANDARD PLATE) was “inactive; negative” and the mutagenic call (Test System: AMES SALMONELLA TYPHIMURIUM, Strain/Indicator: TA100, Metabolic Activation: RAT LIVER S-9, PHENOBARBITAL AND BETA-NAPHTHOFLAVONE, Method: PREINCUBATION) was “inactive; negative”. For the same compound, the mutagenic call (Test System: AMES SALMONELLA TYPHIMURIUM, Strain/Indicator: TA100, Metabolic Activation: RAT, LIVER, S-9, AROCLOR 1254 (10%), Method: PREINCUBATION) was “inactive; negative”, the mutagenic call (Test System: AMES SALMONELLA TYPHIMURIUM, Strain/Indicator: TA100, Metabolic Activation: RAT, LIVER, S-9, AROCLOR 1254, Method: STANDARD PLATE) was “inactive; negative” and the mutagenic call (Test System: AMES SALMONELLA TYPHIMURIUM, Strain/Indicator: TA100, Metabolic Activation: RAT, LIVER, S-9, AROCLOR, Method: STANDARD PLATE) was “inactive; negative”. The mutagenic call (Test System: AMES SALMONELLA TYPHIMURIUM, Strain/Indicator: TA102, Metabolic Activation: NONE, Method: PREINCUBATION) was “inactive; negative”, the mutagenic call (Test System: AMES SALMONELLA TYPHIMURIUM, Strain/Indicator: TA102, Metabolic Activation: RAT LIVER S-9, PHENOBARBITAL AND BETA-NAPHTHOFLAVONE, Method: PREINCUBATION) was “inactive; negative” and the mutagenic call (Test System: AMES SALMONELLA TYPHIMURIUM, Strain/Indicator: TA102, Metabolic Activation: S-9, Method: PREINCUBATION) was “inactive; negative”. The mutagenic call (Test System: AMES SALMONELLA TYPHIMURIUM, Strain/Indicator: TA104, Metabolic Activation: NONE, Method: PREINCUBATION) was “inactive; negative”, the mutagenic call (Test System: AMES SALMONELLA TYPHIMURIUM, Strain/Indicator: TA104, Metabolic Activation: RAT LIVER S-9, PHENOBARBITAL AND BETA-NAPHTHOFLAVONE, Method: PREINCUBATION) was “inactive; negative” and the mutagenic call (Test System: AMES SALMONELLA TYPHIMURIUM, Strain/Indicator: TA1535, Metabolic Activation: HAMSTER, LIVER, S-9, AROCLOR 1254 (10%), Method: PREINCUBATION) was “inactive; negative”. For the same compound, the mutagenic call (Test System: AMES SALMONELLA TYPHIMURIUM, Strain/Indicator: TA1535, Metabolic Activation: HAMSTER, LIVER, S-9, AROCLOR 1254, Method: STANDARD PLATE) was “inactive; negative”, the mutagenic call (Test System: AMES SALMONELLA TYPHIMURIUM, Strain/Indicator: TA1535, Metabolic Activation: NONE, Method: PREINCUBATION) was “inactive; negative” and the mutagenic call (Test System: AMES SALMONELLA TYPHIMURIUM, Strain/Indicator: TA1535, Metabolic Activation: NONE, Method: STANDARD PLATE) was “inactive; negative”. For the same compound, the mutagenic call (Test System: AMES SALMONELLA TYPHIMURIUM, Strain/Indicator: TA1535, Metabolic Activation: RAT LIVER S-9, PHENOBARBITAL AND BETA-NAPHTHOFLAVONE, Method: PREINCUBATION) was “inactive; negative”, the mutagenic call (Test System: AMES SALMONELLA TYPHIMURIUM, Strain/Indicator: TA1535, Metabolic Activation: RAT, LIVER, S-9, AROCLOR 1254 (10%), Method: PREINCUBATION) was “inactive; negative” and the mutagenic call (Test System: AMES SALMONELLA TYPHIMURIUM, Strain/Indicator: TA1535, Metabolic Activation: RAT, LIVER, S-9, AROCLOR 1254, Method: STANDARD PLATE) was “inactive; negative”. The mutagenic call (Test System: AMES SALMONELLA TYPHIMURIUM, Strain/Indicator: TA1535, Metabolic Activation: RAT, LIVER, S-9, AROCLOR, Method: STANDARD PLATE) was “inactive; negative”, the mutagenic call (Test System: AMES SALMONELLA TYPHIMURIUM, Strain/Indicator: TA1537, Metabolic Activation: HAMSTER, LIVER, S-9, AROCLOR 1254 (10%), Method: PREINCUBATION) was “inactive; negative” and the mutagenic call (Test System: AMES SALMONELLA TYPHIMURIUM, Strain/Indicator: TA1537, Metabolic Activation: HAMSTER, LIVER, S-9, AROCLOR 1254, Method: STANDARD PLATE) was “inactive; negative”. The mutagenic call (Test System: AMES SALMONELLA TYPHIMURIUM, Strain/Indicator: TA1537, Metabolic Activation: NONE, Method: PREINCUBATION) was “inactive; negative”, the mutagenic call (Test System: AMES SALMONELLA TYPHIMURIUM, Strain/Indicator: TA1537, Metabolic Activation: NONE, Method: STANDARD PLATE) was “inactive; negative” and the mutagenic call (Test System: AMES SALMONELLA TYPHIMURIUM, Strain/Indicator: TA1537, Metabolic Activation: RAT LIVER S-9, PHENOBARBITAL AND BETA-NAPHTHOFLAVONE, Method: PREINCUBATION) was “inactive; negative”. The mutagenic call (Test System: AMES SALMONELLA TYPHIMURIUM, Strain/Indicator: TA1537, Metabolic Activation: RAT, LIVER, S-9, AROCLOR 1254 (10%), Method: PREINCUBATION) was “inactive; negative”, the mutagenic call (Test System: AMES SALMONELLA TYPHIMURIUM, Strain/Indicator: TA1537, Metabolic Activation: RAT, LIVER, S-9, AROCLOR 1254, Method: STANDARD PLATE) was “inactive; negative” and the mutagenic call (Test System: AMES SALMONELLA TYPHIMURIUM, Strain/Indicator: TA1537, Metabolic Activation: RAT, LIVER, S-9, AROCLOR, Method: STANDARD PLATE) was “inactive; negative”. The mutagenic call (Test System: AMES SALMONELLA TYPHIMURIUM, Strain/Indicator: TA1538, Metabolic Activation: HAMSTER, LIVER, S-9, AROCLOR 1254, Method: STANDARD PLATE) was “inactive; negative”, the mutagenic call (Test System: AMES SALMONELLA TYPHIMURIUM, Strain/Indicator: TA1538, Metabolic Activation: NONE, Method: STANDARD PLATE) was “inactive; negative” and the mutagenic call (Test System: AMES SALMONELLA TYPHIMURIUM, Strain/Indicator: TA1538, Metabolic Activation: RAT, LIVER, S-9, AROCLOR 1254, Method: STANDARD PLATE) was “inactive; negative”. The mutagenic call (Test System: AMES SALMONELLA TYPHIMURIUM, Strain/Indicator: TA1538, Metabolic Activation: RAT, LIVER, S-9, AROCLOR, Method: STANDARD PLATE) was “inactive; negative”, the mutagenic call (Test System: CHINESE HAMSTER OVARY, Strain/Indicator: CHO-K1-BH4 (HGPRT), Metabolic Activation: NONE) was “inactive; negative” and the mutagenic call (Test System: CHINESE HAMSTER OVARY, Strain/Indicator: CHO-K1-BH4 (HGPRT), Metabolic Activation: RAT, LIVER, S-9, AROCLOR 1254) was “inactive; negative”. For the same compound, the mutagenic call (Test System: E.COLI, Strain/Indicator: WP2UVRA/PKM101, Metabolic Activation: NONE, Method: PREINCUBATION) was “inactive; negative”, the mutagenic call (Test System: E.COLI, Strain/Indicator: WP2UVRA/PKM101, Metabolic Activation: RAT LIVER S-9, PHENOBARBITAL AND BETA-NAPHTHOFLAVONE, Method: PREINCUBATION) was “inactive; negative” and the mutagenic call (Test System: E.COLI, Strain/Indicator: WP2UVRA, Metabolic Activation: NONE, Method: PREINCUBATION) was “inactive; negative”. For the same compound, the mutagenic call (Test System: E.COLI, Strain/Indicator: WP2UVRA, Metabolic Activation: RAT LIVER S-9, PHENOBARBITAL AND BETA-NAPHTHOFLAVONE, Method: PREINCUBATION) was “inactive; negative”, the mutagenic call (Test System: MOUSE LYMPHOMA, Strain/Indicator: L5178Y (TK+/TK-), Metabolic Activation: RAT, LIVER, S-9, AROCLOR 1254, Method: SUSPENSION /PLATE) was “active; positive” and the mutagenic call (Test System: MOUSE LYMPHOMA, Strain/Indicator: L5178Y (TK+/TK-), Metabolic Activation: RAT, LIVER, S-9, AROCLOR 1254, Method: SUSPENSION/PLATE) was “active; positive. reevaluation of results: positive”. The mutagenic call (Test System: MOUSE LYMPHOMA, Strain/Indicator: L5178Y (TK+/TK-), Metabolic Activation: RAT, LIVER, S-9, AROCLOR, Method: SUSPENSION/PLATE) was “inactive; negative”, the mutagenic call (Test System: UDS RAT HEPATOCYTES, Strain/Indicator: THY INCORP, Metabolic Activation: NONE, Method: AUTORADIOGRAPHY) was “inactive; negative” and the mutagenic call (Test System: UDS RODENT CELLS, Strain/Indicator: SHE CELL-MEDIATED, Metabolic Activation: NONE, Method: LIQUID SCINTILLATION COUNTING (THYMIDINE INCORPORATION)) was “inactive; negative”. For the same compound, the mutagenic call (Test System: UDS RODENT HEPATOCYTES, Strain/Indicator: THY INCORP (NON-S-PHASE), Metabolic Activation: NONE, Method: AUTORADIOGRAPHY) was “inactive; negative”.
